Results on 3 molecules are retold here after US20240246942A1, “KINASE INHIBITORS FOR THE TREATMENT OF NEURODEGENERATIVE DISEASES” (priority 2020, published 2024).

Assay in all cases: biochemical
In assay [1] the target is T1, panel of 374 wild-type kinases (Homo sapiens, UniProt Q12851).
T1 construct: purchased Reaction Biology Corporation
T1 sequence (Q12851 1-820): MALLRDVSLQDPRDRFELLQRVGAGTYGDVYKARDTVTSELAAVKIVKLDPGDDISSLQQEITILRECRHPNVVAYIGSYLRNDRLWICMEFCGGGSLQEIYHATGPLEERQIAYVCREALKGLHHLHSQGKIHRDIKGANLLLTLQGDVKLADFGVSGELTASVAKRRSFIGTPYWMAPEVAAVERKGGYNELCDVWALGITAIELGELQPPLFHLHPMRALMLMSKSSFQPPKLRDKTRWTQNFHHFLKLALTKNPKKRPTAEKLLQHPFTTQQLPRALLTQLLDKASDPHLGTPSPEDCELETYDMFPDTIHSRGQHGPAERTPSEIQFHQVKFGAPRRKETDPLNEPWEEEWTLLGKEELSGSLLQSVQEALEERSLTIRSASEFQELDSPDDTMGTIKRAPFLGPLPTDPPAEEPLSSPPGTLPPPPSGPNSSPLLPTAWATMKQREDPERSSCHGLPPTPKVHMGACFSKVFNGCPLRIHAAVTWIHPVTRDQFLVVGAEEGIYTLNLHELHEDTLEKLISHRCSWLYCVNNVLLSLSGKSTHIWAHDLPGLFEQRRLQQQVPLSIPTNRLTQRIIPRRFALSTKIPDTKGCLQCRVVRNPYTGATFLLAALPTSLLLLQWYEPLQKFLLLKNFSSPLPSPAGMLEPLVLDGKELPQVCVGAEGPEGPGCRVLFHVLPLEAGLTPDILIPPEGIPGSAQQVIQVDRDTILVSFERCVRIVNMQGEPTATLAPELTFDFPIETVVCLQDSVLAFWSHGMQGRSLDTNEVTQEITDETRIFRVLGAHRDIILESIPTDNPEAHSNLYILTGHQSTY
Particulars: read-out: % Enzyme Activity (relative to DMSO controls), GCK/MAP4K2.

The target of assay [2] is T2, panel of 374 wild-type kinases (Homo sapiens, UniProt Q99683).
T2 construct: purchased Reaction Biology Corporation
T2 sequence (Q99683 1-1374): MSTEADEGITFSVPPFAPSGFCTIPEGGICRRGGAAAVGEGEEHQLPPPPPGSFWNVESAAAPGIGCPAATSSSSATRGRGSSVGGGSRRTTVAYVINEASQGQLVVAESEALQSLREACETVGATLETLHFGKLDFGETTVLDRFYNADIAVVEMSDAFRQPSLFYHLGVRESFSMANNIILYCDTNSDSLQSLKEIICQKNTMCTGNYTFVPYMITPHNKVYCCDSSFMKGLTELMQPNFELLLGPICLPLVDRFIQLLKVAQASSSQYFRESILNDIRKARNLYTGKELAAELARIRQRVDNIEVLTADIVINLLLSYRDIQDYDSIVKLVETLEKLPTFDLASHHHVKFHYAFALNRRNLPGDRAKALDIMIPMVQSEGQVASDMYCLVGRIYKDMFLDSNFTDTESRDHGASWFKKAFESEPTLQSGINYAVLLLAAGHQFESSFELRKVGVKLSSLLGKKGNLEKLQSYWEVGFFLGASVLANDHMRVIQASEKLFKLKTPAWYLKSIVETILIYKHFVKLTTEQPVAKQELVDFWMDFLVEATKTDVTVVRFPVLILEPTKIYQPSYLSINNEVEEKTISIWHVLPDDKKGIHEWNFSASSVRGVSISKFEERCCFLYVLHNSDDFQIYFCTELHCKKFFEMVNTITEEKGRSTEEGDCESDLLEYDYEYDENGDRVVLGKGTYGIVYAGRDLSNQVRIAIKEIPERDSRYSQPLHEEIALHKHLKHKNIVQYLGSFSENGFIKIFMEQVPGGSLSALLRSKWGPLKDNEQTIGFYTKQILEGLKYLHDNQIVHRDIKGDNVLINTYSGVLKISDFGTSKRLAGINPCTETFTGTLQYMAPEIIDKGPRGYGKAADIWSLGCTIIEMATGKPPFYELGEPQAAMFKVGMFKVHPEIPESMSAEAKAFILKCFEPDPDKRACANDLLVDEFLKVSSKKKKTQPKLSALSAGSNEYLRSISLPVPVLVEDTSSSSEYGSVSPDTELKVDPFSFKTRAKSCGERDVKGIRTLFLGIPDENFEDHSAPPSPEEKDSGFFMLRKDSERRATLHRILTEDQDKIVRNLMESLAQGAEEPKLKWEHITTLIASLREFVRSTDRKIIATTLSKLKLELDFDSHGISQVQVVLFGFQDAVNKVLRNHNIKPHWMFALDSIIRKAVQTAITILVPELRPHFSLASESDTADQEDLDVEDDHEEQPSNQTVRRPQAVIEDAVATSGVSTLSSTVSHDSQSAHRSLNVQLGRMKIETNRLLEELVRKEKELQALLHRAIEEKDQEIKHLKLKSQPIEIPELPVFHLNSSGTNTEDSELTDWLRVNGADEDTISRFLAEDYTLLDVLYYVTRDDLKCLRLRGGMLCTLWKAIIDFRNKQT
Particulars: read-out: % Enzyme Activity (relative to DMSO controls), ASK1/MAP3K5.

In assay [3] the target is T3, panel of 374 wild-type kinases (Homo sapiens, UniProt Q9UHD2).
T3 construct: purchased Reaction Biology Corporation
T3 sequence (Q9UHD2 1-729): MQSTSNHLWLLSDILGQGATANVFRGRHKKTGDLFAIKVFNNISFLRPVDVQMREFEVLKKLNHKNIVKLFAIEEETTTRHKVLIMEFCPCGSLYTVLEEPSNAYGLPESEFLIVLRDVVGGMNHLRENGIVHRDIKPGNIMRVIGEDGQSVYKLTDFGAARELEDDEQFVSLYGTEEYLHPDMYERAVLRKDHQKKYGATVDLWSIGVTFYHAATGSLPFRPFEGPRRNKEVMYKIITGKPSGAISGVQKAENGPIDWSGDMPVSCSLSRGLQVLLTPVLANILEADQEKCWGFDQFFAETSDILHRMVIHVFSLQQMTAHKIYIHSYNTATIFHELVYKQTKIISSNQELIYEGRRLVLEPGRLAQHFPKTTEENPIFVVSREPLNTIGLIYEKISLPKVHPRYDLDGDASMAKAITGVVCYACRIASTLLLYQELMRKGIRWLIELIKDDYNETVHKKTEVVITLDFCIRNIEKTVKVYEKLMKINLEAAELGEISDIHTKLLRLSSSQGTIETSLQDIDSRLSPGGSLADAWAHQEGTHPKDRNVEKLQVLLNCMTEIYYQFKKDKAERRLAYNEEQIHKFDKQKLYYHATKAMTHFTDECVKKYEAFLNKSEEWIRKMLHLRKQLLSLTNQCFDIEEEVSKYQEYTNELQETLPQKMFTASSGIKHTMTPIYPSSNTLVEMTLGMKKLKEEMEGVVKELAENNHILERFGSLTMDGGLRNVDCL
Particulars: read-out: % Enzyme Activity (relative to DMSO controls), kinase TBK1.

As for `O=C(Nc1cnn(-c2csc(C(=O)NC3COC3)c2)c1)Nc1ccccc1Cl` [Compound 17, 4-(4-(3-(2-chlorophenyl)ureido)-1H-pyrazol-1-yl)-N-(oxetan-3-yl)thiophene-2-carboxamide], the remaining activity at 5 µM is 105% in assay [1], 91.2% in assay [2] and 102% in assay [3].

Take `O=C(Nc1cnn(-c2csc(C(=O)NC3COC3)c2)c1)Nc1c(F)cccc1Cl` [Compound 25, 4-(4-(3-(2-chloro-6-fluorophenyl)ureido)-1H-pyrazol-1-yl)-N-(oxetan-3-yl)thiophene-2-carboxamide]: the remaining activity at 5 µM in assay [1] was found to be 95.3%; in assay [2] it was 91.1%; in assay [3], 98.8%.

For the molecule `Cc1sc(C(=O)NC2COC2)cc1-n1cc(NC(=O)Nc2c(F)cccc2Cl)cn1` [Compound 27, 4-(4-(3-(2-chloro-6-fluorophenyl)ureido)-1H-pyrazol-1-yl)-5-methyl-N-(oxetan-3-yl)thiophene-2-carboxamide], the remaining activity at 10 µM in assay [1] (10 uM) amounted to 90.2%; in assay [2] (10 uM), 94%; in assay [3] (10 uM), 97.8%.
